C[C@H]1COc2c(N3CCN(C)CC3)c(F)c(N)c3c(=O)c(C(=O)O)cn1c23.Cl
solubility (mole fraction)
Conditions | 273.15 K | 278.15 K | 283.15 K | 288.15 K | 293.15 K | 298.15 K | 303.15 K | 308.15 K | 313.15 K | 318.15 K
in acetonitrile | 2.41e-06 | 2.73e-06 | 3.11e-06 | 3.59e-06 | 4.1e-06 | 4.68e-06 | 5.36e-06 | 6.07e-06 | 6.9e-06 | 7.84e-06
in ethanol | 9.29e-06 | 1.06e-05 | 1.22e-05 | 1.39e-05 | 1.59e-05 | 1.78e-05 | 2.02e-05 | 2.29e-05 | 2.56e-05 | 2.87e-05
in water | 0.000436 | 0.000564 | 0.000725 | 0.000971 | 0.00126 | 0.00161 | 0.00204 | 0.00253 | 0.00311 | 0.00376

Reference: BigSolDB 2.1
